# According to PMC11124822, “Discovery and Anticancer Screening of Novel Oxindole-Based Derivative Bearing Pyridyl Group as Potent and Selective Dual FLT3/CDK2 Kinase Inhibitor” (Pharmaceuticals, 2024):
# What was measured:
# CCRF-CEM = test: NCI-60 antiproliferative screen (SRB); format: cell-based, human; conditions: Homo sapiens; 10 µM single dose, 48 h; CCRF-CEM (Leukemia); read-out: Growth inhibition (%)
# RPMI-8226 = test: NCI-60 antiproliferative screen (SRB); format: cell-based, human; conditions: Homo sapiens; 10 µM single dose, 48 h; RPMI-8226 (Leukemia); read-out: Growth inhibition (%)
# EKVX = test: NCI-60 antiproliferative screen (SRB); format: cell-based, human; conditions: Homo sapiens; 10 µM single dose, 48 h; EKVX (NSCLC); read-out: Growth inhibition (%)
# HOP-62 = test: NCI-60 antiproliferative screen (SRB); format: cell-based, human; conditions: Homo sapiens; 10 µM single dose, 48 h; HOP-62 (NSCLC); read-out: Growth inhibition (%)
# HOP-92 = test: NCI-60 antiproliferative screen (SRB); format: cell-based, human; conditions: Homo sapiens; 10 µM single dose, 48 h; HOP-92 (NSCLC); read-out: Growth inhibition (%)
# NCI-H460 = test: NCI-60 antiproliferative screen (SRB); format: cell-based, human; conditions: Homo sapiens; 10 µM single dose, 48 h; NCI-H460 (NSCLC); read-out: Growth inhibition (%)
# NCI-H522 = test: NCI-60 antiproliferative screen (SRB); format: cell-based, human; conditions: Homo sapiens; 10 µM single dose, 48 h; NCI-H522 (NSCLC); read-out: Growth inhibition (%)
# COLO 205 = test: NCI-60 antiproliferative screen (SRB); format: cell-based, human; conditions: Homo sapiens; 10 µM single dose, 48 h; COLO 205 (Colon); read-out: Growth inhibition (%)
# KM12 = test: NCI-60 antiproliferative screen (SRB); format: cell-based, human; conditions: Homo sapiens; 10 µM single dose, 48 h; KM12 (Colon); read-out: Growth inhibition (%)
# SF-268 = test: NCI-60 antiproliferative screen (SRB); format: cell-based, human; conditions: Homo sapiens; 10 µM single dose, 48 h; SF-268 (CNS); read-out: Growth inhibition (%)
# SNB-19 = test: NCI-60 antiproliferative screen (SRB); format: cell-based, human; conditions: Homo sapiens; 10 µM single dose, 48 h; SNB-19 (CNS); read-out: Growth inhibition (%)
# M14 = test: NCI-60 antiproliferative screen (SRB); format: cell-based, human; conditions: Homo sapiens; 10 µM single dose, 48 h; M14 (Melanoma); read-out: Growth inhibition (%)
# SK-MEL-28 = test: NCI-60 antiproliferative screen (SRB); format: cell-based, human; conditions: Homo sapiens; 10 µM single dose, 48 h; SK-MEL-28 (Melanoma); read-out: Growth inhibition (%)
# SK-MEL-5 = test: NCI-60 antiproliferative screen (SRB); format: cell-based, human; conditions: Homo sapiens; 10 µM single dose, 48 h; SK-MEL-5 (Melanoma); read-out: Growth inhibition (%)
# UACC-257 = test: NCI-60 antiproliferative screen (SRB); format: cell-based, human; conditions: Homo sapiens; 10 µM single dose, 48 h; UACC-257 (Melanoma); read-out: Growth inhibition (%)
# UACC-62 = test: NCI-60 antiproliferative screen (SRB); format: cell-based, human; conditions: Homo sapiens; 10 µM single dose, 48 h; UACC-62 (Melanoma); read-out: Growth inhibition (%)
# IGROV1 = test: NCI-60 antiproliferative screen (SRB); format: cell-based, human; conditions: Homo sapiens, IGROV-1; 10 µM single dose, 48 h; IGROV1 (Ovarian); read-out: Growth inhibition (%)
# OVCAR-5 = test: NCI-60 antiproliferative screen (SRB); format: cell-based, human; conditions: Homo sapiens; 10 µM single dose, 48 h; OVCAR-5 (Ovarian); read-out: Growth inhibition (%)
# NCI/ADR-RES = test: NCI-60 antiproliferative screen (SRB); format: cell-based, human; conditions: Homo sapiens; 10 µM single dose, 48 h; NCI/ADR-RES (Ovarian); read-out: Growth inhibition (%)
# SK-OV-3 = test: NCI-60 antiproliferative screen (SRB); format: cell-based, human; conditions: Homo sapiens; 10 µM single dose, 48 h; SK-OV-3 (Ovarian); read-out: Growth inhibition (%)
# A498 = test: NCI-60 antiproliferative screen (SRB); format: cell-based, human; conditions: Homo sapiens; 10 µM single dose, 48 h; A498 (Renal); read-out: Growth inhibition (%)
# ACHN = test: NCI-60 antiproliferative screen (SRB); format: cell-based, human; conditions: Homo sapiens; 10 µM single dose, 48 h; ACHN (Renal); read-out: Growth inhibition (%)
# RXF 393 = test: NCI-60 antiproliferative screen (SRB); format: cell-based, human; conditions: Homo sapiens; 10 µM single dose, 48 h; RXF 393 (Renal); read-out: Growth inhibition (%)
# TK-10 = test: NCI-60 antiproliferative screen (SRB); format: cell-based, human; conditions: Homo sapiens; 10 µM single dose, 48 h; TK-10 (Renal); read-out: Growth inhibition (%)
# UO-31 = test: NCI-60 antiproliferative screen (SRB); format: cell-based, human; conditions: Homo sapiens; 10 µM single dose, 48 h; UO-31 (Renal); read-out: Growth inhibition (%)
# MCF7 = test: NCI-60 antiproliferative screen (SRB); format: cell-based, human; conditions: Homo sapiens; 10 µM single dose, 48 h; MCF7 (Breast); read-out: Growth inhibition (%)
# MDA-MB-231 = test: NCI-60 antiproliferative screen (SRB); format: cell-based, human; conditions: Homo sapiens; 10 µM single dose, 48 h; MDA-MB-231 (Breast); read-out: Growth inhibition (%)
# T-47D = test: NCI-60 antiproliferative screen (SRB); format: cell-based, human; conditions: Homo sapiens, T47D; 10 µM single dose, 48 h; T-47D (Breast); read-out: Growth inhibition (%)
# OVCAR-4 = test: NCI-60 antiproliferative screen (SRB); conditions: Homo sapiens, OVCAR-4, 48 h, read-out: Growth inhibition (%)
# Experimental: Anticancer activity was tested against 60 cancer cell lines (NCI-60) after 48h treatments with a single dosage of 10 μM of compounds by using sulforhodamine B assay [39] on the traditional 96-well platform. […] The human cancer cell lines of the NCI-60 panel are grown in RPMI 1640 medium supplemented with 5% FBS (fetal bovine serum) and 2 mM L-glutamine. […] For further analysis of promising compounds, five dose screens were performed against the NCI-60 panel. Drug treatments are performed in 5 doses using 10-fold or ½ log dose dilutions.
# SR = test: NCI-60 antiproliferative screen (SRB); conditions: Homo sapiens, 48 h, read-out: Growth inhibition (%)
Compound,inhibition at 10 µM (CCRF-CEM) [%],inhibition at 10 µM (RPMI-8226) [%],inhibition at 10 µM (EKVX) [%],inhibition at 10 µM (HOP-62) [%],inhibition at 10 µM (HOP-92) [%],inhibition at 10 µM (NCI-H460) [%],inhibition at 10 µM (NCI-H522) [%],inhibition at 10 µM (COLO 205) [%],inhibition at 10 µM (KM12) [%],inhibition at 10 µM (SF-268) [%],inhibition at 10 µM (SNB-19) [%],inhibition at 10 µM (M14) [%],inhibition at 10 µM (SK-MEL-28) [%],inhibition at 10 µM (SK-MEL-5) [%],inhibition at 10 µM (UACC-257) [%],inhibition at 10 µM (UACC-62) [%],inhibition at 10 µM (OVCAR-5) [%],inhibition at 10 µM (NCI/ADR-RES) [%],inhibition at 10 µM (SK-OV-3) [%],inhibition at 10 µM (A498) [%],further results
"O=C1Nc2ccc(F)cc2C1=Cc1ccc(OCc2ccccn2)cc1 (mixture of isomers) [Compound 5f, (E/Z)-5-fluoro-3-[4-(pyridin-2-ylmethoxy)benzylidene]indolin-2-one]",5.79,19.4,15.8,-7.71,32.9,11.6,68.1,-10.8,18.8,29.9,12.9,-5.09,-8.53,-5.85,-4.06,9.94,-9.45,21.7,3.75,32.5,inhibition at 10 µM (IGROV1): 6.35%; inhibition at 10 µM (ACHN): 23.8%; inhibition at 10 µM (RXF 393): 24.2%; inhibition at 10 µM (TK-10): 4.47%; inhibition at 10 µM (UO-31): 26.5%; inhibition at 10 µM (MCF7): 37.8%; inhibition at 10 µM (MDA-MB-231): 14.9%; inhibition at 10 µM (T-47D): 60.7%; melting point: 226 to 228 °C; inhibition at 10 µM (OVCAR-4): 5.38%
"O=C1Nc2ccc(F)cc2C1=Cc1ccc(OCc2cccnc2)cc1 (mixture of isomers) [Compound 5j, (E/Z)-5-Fluoro-3-[4-(pyridin-3-ylmethoxy)benzylidene]indolin-2-one]",75,61.2,41,45.4,25.8,53.9,89.5,46.1,97.3,11.1,62.1,67.1,28.2,113,39.8,57.8,-11.2,85.6,13.2,-29.1,inhibition at 10 µM (ACHN): 51.8%; inhibition at 10 µM (RXF 393): 37.3%; inhibition at 10 µM (TK-10): -1.92%; inhibition at 10 µM (MCF7): 91%; inhibition at 10 µM (MDA-MB-231): 42%; inhibition at 10 µM (T-47D): 66.7%; melting point: 187 to 189 °C; inhibition at 10 µM (SR): 73%; inhibition at 10 µM (OVCAR-4): 47.2%
"O=C1Nc2ccc(Cl)cc2C1=Cc1ccc(OCc2cccnc2)cc1 (mixture of isomers) [Compound 5k, (E/Z)-5-Chloro-3-[4-(pyridin-3-ylmethoxy)benzylidene] indolin-2-one]",36.4,29.7,16.1,0.56,-1.4,14.3,19.8,5.66,52.8,5.1,22.9,12.2,-20.5,11.4,2.42,23.3,-34.5,26,5.36,-31.6,inhibition at 10 µM (ACHN): 16.4%; inhibition at 10 µM (RXF 393): 6.84%; inhibition at 10 µM (TK-10): -37.8%; inhibition at 10 µM (MCF7): 55.5%; inhibition at 10 µM (MDA-MB-231): 9.08%; inhibition at 10 µM (T-47D): 23.2%; melting point: 199 to 201 °C; inhibition at 10 µM (SR): 66.1%; inhibition at 10 µM (OVCAR-4): 21.2%
